For the test, the system named is hippocampal neurotransmission (PS amplitude, dentate granule cells, perforant path stimulation). Put plainly: Population spike (PS) recording in dentate gyrus of anesthetized mice (LTP-like potentiation of synaptic transmission). It is filed as in vivo. The following applies: mouse. The source says:
For population spike (PS) recording, the head of a mouse was fixed with ear bars under urethane anesthesia (an initial dose of 1.2 g/kg, i.p. followed by supplemental injections of 0.2-0.6 g/kg as needed), and a glass recording electrode was placed in the cell body layer of dentate granule cells (coordinates=2.0-2.5 mm posterior to bregma, 1.0-1.5 mm lateral to the midline, 1.5-2.0 mm ventral to the brain surface). Initial responses were obtained using cathodal stimulation (7.0-9.0 V, 0.1 Hz, 0.1 ms in duration) of the perforant path. After both stimulating and recording electrodes were properly positioned and population spike was obtained, the baseline was allowed to stabilize for 30 min prior to baseline recording. Body temperature was maintained at 37° C. Compound A was dissolved in 50% polyethylene glycol, diluted with water, and injected intraperitoneally (i.p.) at concentrations of 0.1 mg/kg, 1 mg/kg and 10 mg/kg, respectively. After the intraperitoneal administration of Compound A, the PS amplitude was measured every 5 minutes, and the proportion in percentage of the obtained value to the PS amplitude at the time of the start of i.p. administration of Compound A (% of basal PS amplitude) was calculated.

The structures appear in SMILES notation.

With `CCCCCC1CC1CC1CC1CCCCCCCC(=O)O` (stereo not drawn) [Compound A, 8-(2-((2-pentylcyclopropan-1-yl)methyl)cyclopropyl)octanoic acid], the “time after injection at which potentiation of PS amplitude is still evident” value (1 mg/kg i.p.) is listed as ≥ 120 min. The “PS amplitude, percent of basal PS amplitude” value (1 mg/kg i.p., urethane anesthesia) is reported as “approximately 200%”. The “potentiation of PS amplitude” value (10 mg/kg i.p., compared with 1 mg/kg) is “much lesser potentiation”.
